These results are taken from publication PMC8170132, “Kinetics of Abacavir-Induced Remodelling of the Major Histocompatibility Complex Class I Peptide Repertoire” (Frontiers in Immunology, 2021).

Series [1] deals with HLA-B*15:02 (Homo sapiens, UniProt P01889, A329T/A93T/A95T/C349S/D201E/D98Y/E187L/E204Q/E69M/E70A/H137Y/K202T/L119I/Q94N/R155S/R180L/S121R/S35A/S48A/T118I/V306I/V36M/Y140S/Y91S). The note with it: ref [20]–[22]; cited from earlier work.
For series [2], the target named is T1, HLA-B*57:01fos (Homo sapiens, UniProt P01889, D201E/D98Y/E176V/E187L/E204Q/E69M/E70A/G107R/I90N/K202T/L105A/L119I/N104I/N87E/Q89R/Q94S/R106L/R155S/R180L/R86G/S101N/S121V/S35A/S48A/T118I/V36M/Y140S/Y91M).
T1 construct: Fos leucine zipper (C); made in house
Put plainly: Fluorescence polarisation dissociation rate measurements. Type of series: binding. The note with it: for Effect of abacavir on dissociation of the peptide from HLA-B*57:01fos: 60 µM abacavir with competing peptide; for Half life (hours) of dissociation from HLA-B*57:01fos, Comp+Abacavir / Half life (hours) of dissociation from HLA-B*57:01fos, Comp+Tapasin / Half life (hours) of dissociation from HLA-B*57:01fos, Comp+Tapasin+Abacavir: as Comp; for Half life (hours) of dissociation from HLA-B*57:01fos, Comp+Abacavir: plus 60 µM abacavir; for Half life (hours) of dissociation from HLA-B*57:01fos, Comp+Abacavir / Half life (hours) of dissociation from HLA-B*57:01fos, Comp+Tapasin / Half life (hours) of dissociation from HLA-B*57:01fos, Comp+Tapasin+Abacavir / Half life (hours) of dissociation from HLA-B*57:01fos, Comp: fluorescence polarisation, 25°C, one-phase decay, plateau 50 mP (unconstrained for RVD), 3-4 replicates; for Half life (hours) of dissociation from HLA-B*57:01fos, Comp+Tapasin: plus conjugated tapasin-jun-ERp57 C60A (mostly 0.254 µM); for Half life (hours) of dissociation from HLA-B*57:01fos, Comp+Tapasin+Abacavir: plus tapasin-jun-ERp57 C60A and 60 µM abacavir; for Half life (hours) of dissociation from HLA-B*57:01fos, Comp: PBS + 0.5 mg/ml bovine-gamma-globulin, 20 fold excess human β2m, excess unlabelled competing peptide only; for Tapasin dependent enhancement of dissociation: tapasin-jun-ERp57 C60A with competing peptide; for Rate of dissociation from HLA-B*57:01fos (in words): competing peptide only. The protocol: (§1) Peptide loaded HLA-B*57:01fos complexes were obtained as described ([50]) by refolding solubilised inclusion bodies of HLA-B*57:01fos heavy chains with human β 2m and UV-labile HLA-B57-conditional peptide ligand.
(§2) Fluorescence polarisation measurements were taken using a SpectraMax i3x Multi-Mode Microplate Reader (Molecular Devices) with rhodamine detection cartridge. All experiments were conducted at 25°C and used PBS supplemented with 0.5 mg/ml bovine-gamma-globulin (Sigma), and a 20 fold molar excess of human β 2m (Fitzgerald) in a volume of 60 µl. Binding of TAMRA-labelled peptides is reported in millipolarisation units (mP) and is obtained from the equation mP = 1,000 × (S – G × P)/(S + G × P), where S and P are background subtracted fluorescence count rates (S = polarisation emission filter is parallel to the excitation filter; P = polarisation emission filter is perpendicular to the excitation filter) and G (grating) is an instrument and assay dependent factor.
HLA-B*57:01fos molecules were UV exposed and then allowed to bind fluorescent peptides overnight at room temperature. Florescence polarisation measurements were taken after the addition of excess non-labelled competitor peptide (otherwise identical to the labelled peptide) in the absence or presence of 60 µM abacavir or conjugated tapasin-jun-ERp57 C60A proteins. […] Most experiments used 0.55 µM HLA-B*57:01fos molecules, but some experiments involved different preparations of HLA-B*57:01fos which required higher concentrations of HLA-B*57:01fos, up to a maximum of 1.38 µM HLA-B*57:01fos, to achieve equivalent polarisation levels.
Supplementary Table 2. Dissociation rates of TAMRA-labelled peptides from HLA-B*57:01fos molecules. The rates at which the indicated peptides dissociated from HLA-B*57:01fos molecules in the presence of excess unlabelled competing peptide (“Comp”), abacavir and tapasin (data shown in figure 7) was measured by Graphpad Prism v9.1.0. The dissociation rates were calculated by performing non-linear regression, using the one-phase decay method, with plateaus constrained to be equal to 50 mP (apart from being unconstrained for RVD peptide). The number of experimental replicates, and the standard deviation in the measured dissociation rates across the replicates is also presented.
On the technique in general: Fluorescence polarisation rises when a labelled molecule tumbles more slowly, as on binding a larger partner.

Series [3] addresses T1, HLA-B*57:01fos. Briefly: Fluorescence polarisation association rate measurements. Type of series: binding. Particulars: 25°C; for Effect of abacavir on binding of fluorescent peptide to HLA-B*57:01fos: 60 µM abacavir; for Effect of abacavir on binding of fluorescent peptide to HLA-B*57:01fos / Effect of tapasin on binding of fluorescent peptide to HLA-B*57:01fos / Effect of combined abacavir and tapasin on binding of fluorescent peptide to HLA-B*57:01fos: fluorescence polarisation; for Effect of tapasin on binding of fluorescent peptide to HLA-B*57:01fos: tapasin-jun or tapasin-jun ERp57 C60A conjugate; for Effect of combined abacavir and tapasin on binding of fluorescent peptide to HLA-B*57:01fos: 60 µM abacavir + tapasin-jun; for Intrinsic binding of fluorescent peptide to UV exposed HLA-B*57:01fos: peptide alone, fluorescence polarisation (mP). The protocol:
as §1, §2
Peptide-receptive HLA-B*57:01fos were obtained by exposing HLA-B*57:01fos complexes loaded with UV labile conditional peptide ligand to ~360 nm light for 20 min at 4°C (“UV exposed” hereafter). The binding of fluorescent peptides to UV exposed HLA-B*57:01fos was monitored in the absence or presence of excess (60 µM) abacavir or tapasin-jun or tapasin-jun ERp57 C60A conjugate. […] Most experiments used 0.55 µM HLA-B*57:01fos molecules, but a minority of experiments involved different preparations of HLA-B*57:01fos which required higher concentrations of HLA-B*57:01fos, up to a maximum of 3.18 µM HLA-B*57:01fos, to achieve equivalent polarisation levels.

In series [4] the target is T2, HLA-B*57:01 (Homo sapiens, UniProt P01889, D201E/D98Y/E176V/E187L/E204Q/E69M/E70A/G107R/I90N/K202T/L105A/L119I/N104I/N87E/Q89R/Q94S/R106L/R155S/R180L/R86G/S101N/S121V/S35A/S48A/T118I/V36M/Y140S/Y91M). Details: method as in Illing et al., Nature 2012. Particulars: ref Illing et al., Nature 2012, cited from earlier work.
Series [5] addresses T2, HLA-B*57:01. Briefly: LC-MRM-MS quantitation of HLA ligands and co-purified abacavir from abacavir treated C1R.B*57:01 cells. Type of series: cell-based.

`NC(=O)N1c2ccccc2C=Cc2ccccc21` [carbamazepine]: the “Odds ratio of hypersensitivity reaction with HLA-B*15:02” value in series [1] is greater than 500.
For the compound ATFK*GIVRAI, in series [2], the “Effect of abacavir on dissociation of the peptide from HLA-B*57:01fos” value (from here on “Effect of abacavir … from HLA-B*57:01fos”) is reported as “pronounced decrease in the dissociation”; the “Half life (hours) of dissociation from HLA-B*57:01fos, Comp+Abacavir” value (shortened to “Half life (hours) … Comp+Abacavir”) is 71.63 h; the “Half life (hours) of dissociation from HLA-B*57:01fos, Comp+Tapasin” value is 2.04 h; the “Half life (hours) of dissociation from HLA-B*57:01fos, Comp+Tapasin+Abacavir” value (“Half life (hours) … Comp+Tapasin+Abacavir” for short) amounted to 33.59 h. The “Half life (hours) of dissociation from HLA-B*57:01fos, Comp” value in series [2] was 2.34 h. Further, in series [3], the “Effect of abacavir on binding of fluorescent peptide to HLA-B*57:01fos” value (“Effect of abacavir … to HLA-B*57:01fos” below) is given as “less pronounced” and the “Effect of tapasin on binding of fluorescent peptide to HLA-B*57:01fos” value (shortened to “Effect of tapasin”) was “only slightly enhanced binding”.
As for “ITTKAISRW [canonical peptide ligand of HLA-B*57:01]”, the “Effect of abacavir … to HLA-B*57:01fos” value in series [3] is given as “enhanced the binding”.
For KTFK*DVGNLL, in series [2], the “Effect of abacavir … from HLA-B*57:01fos” value is on record as “pronounced decrease in the dissociation”; the “Half life (hours) … Comp+Abacavir” value came out at 814.20 h; the “Half life (hours) … Comp+Tapasin+Abacavir” value is 62.89 h; the “Half life (hours) of dissociation from HLA-B*57:01fos, Comp” value is 402.30 h. For the same compound, the “Tapasin dependent enhancement of dissociation” value (shortened to “Tapasin dependent enhancement”) in series [2] is given as “significant”. For the same compound, in series [3], the “Effect of combined abacavir and tapasin on binding of fluorescent peptide to HLA-B*57:01fos” value (shortened to “Effect of combined abacavir and tapasin”) is “occurred faster than in the presence of tapasin or abacavir alone”; the “Effect of abacavir … to HLA-B*57:01fos” value is recorded as “binding strongly enhanced”; the “Intrinsic binding of fluorescent peptide to UV exposed HLA-B*57:01fos” value (“Intrinsic binding of fluorescent peptide” below) is “limited intrinsic ability to bind”; the “Effect of tapasin” value was “binding strongly enhanced”.
Take KVFK*LQTSL: in series [2], the “Effect of abacavir … from HLA-B*57:01fos” value was “pronounced decrease in the dissociation”; the “Half life (hours) … Comp+Abacavir” value turned out to be 51.83 h; the “Half life (hours) of dissociation from HLA-B*57:01fos, Comp+Tapasin” value came out at 1.06 h; the “Half life (hours) … Comp+Tapasin+Abacavir” value amounted to 2.47 h. Moreover, in series [2], the “Half life (hours) of dissociation from HLA-B*57:01fos, Comp” value was 3.27 h and the “Tapasin dependent enhancement” value was “significant”. Besides, in series [3], the “Effect of tapasin” value is given as “only slightly enhanced binding”.
Take LTTK*LTNTNI: the “Effect of tapasin” value in series [3] is “did not affect the binding”.
For NTVELRVK*I, in series [2], the “Effect of abacavir … from HLA-B*57:01fos” value was “pronounced decrease in the dissociation”; the “Half life (hours) … Comp+Abacavir” value amounted to 233.60 h; the “Half life (hours) of dissociation from HLA-B*57:01fos, Comp+Tapasin” value came out at 1.60 h; the “Half life (hours) … Comp+Tapasin+Abacavir” value came out at 142.70 h. Further, in series [2], the “Half life (hours) of dissociation from HLA-B*57:01fos, Comp” value was determined as 2.67 h and the “Tapasin dependent enhancement” value was “minimal”. The “Effect of tapasin” value in series [3] is reported as “did not affect the binding”.
RVDPAK*GLFYF: in series [2], the “Effect of abacavir … from HLA-B*57:01fos” value is “modestly enhanced”; the “Half life (hours) … Comp+Abacavir” value is 0.26 h; the “Half life (hours) of dissociation from HLA-B*57:01fos, Comp+Tapasin” value was determined as 0.35 h; the “Half life (hours) … Comp+Tapasin+Abacavir” value came out at 0.26 h. Also, in series [2], the “Rate of dissociation from HLA-B*57:01fos (in words)” value was “minutes” and the “Half life (hours) of dissociation from HLA-B*57:01fos, Comp” value is 0.31 h. In series [3], the “Effect of combined abacavir and tapasin” value was “tapasin partially mitigated this effect”; the “Effect of abacavir … to HLA-B*57:01fos” value is on record as “enhanced by abacavir during the first hour”; the “Intrinsic binding of fluorescent peptide” value is “poor binding”.
TSLK*SRVTI: in series [2], the “Effect of abacavir … from HLA-B*57:01fos” value is on record as “pronounced decrease in the dissociation”; the “Half life (hours) … Comp+Abacavir” value amounted to 22.41 h; the “Half life (hours) of dissociation from HLA-B*57:01fos, Comp+Tapasin” value was found to be 5.12 h; the “Half life (hours) … Comp+Tapasin+Abacavir” value was 10.38 h. For the same compound, the “Half life (hours) of dissociation from HLA-B*57:01fos, Comp” value in series [2] was determined as 7.41 h. In addition, in series [3], the “Effect of combined abacavir and tapasin” value is “occurred faster than in the presence of tapasin or abacavir alone”; the “Effect of abacavir … to HLA-B*57:01fos” value was “binding strongly enhanced”; the “Intrinsic binding of fluorescent peptide” value is “limited intrinsic ability to bind”; the “Effect of tapasin” value is recorded as “binding strongly enhanced”.
Take “VTKK*TYEIW [TAMRA labelled canonical HLA-B*57:01 peptide]”: in series [2], the “Effect of abacavir … from HLA-B*57:01fos” value is listed as “minimal impact on the dissociation”; the “Half life (hours) … Comp+Abacavir” value amounted to 373.30 h; the “Half life (hours) of dissociation from HLA-B*57:01fos, Comp+Tapasin” value stood at 207.90 h; the “Half life (hours) … Comp+Tapasin+Abacavir” value turned out to be 198.40 h. Also, in series [2], the “Rate of dissociation from HLA-B*57:01fos (in words)” value is “hundreds of hours” and the “Half life (hours) of dissociation from HLA-B*57:01fos, Comp” value came out at 374.80 h. Also, in series [3], the “Effect of combined abacavir and tapasin” value is “did not enhance the binding”; the “Intrinsic binding of fluorescent peptide” value is reported as “bound to HLA-B*57:01 molecules”; the “Effect of tapasin” value is “catalysed binding of the VTK and ITT peptides to a greater extent than abacavir”.
“VTKKTYEIW [non-labelled canonical HLA-B*57:01 ligand]”: the “Effect of abacavir … to HLA-B*57:01fos” value in series [3] is “enhanced the binding”. Moreover, the “HLA-B*57:01 previous observation by LC-MS/MS, Abacavir treated” value in series [4] (abacavir treated cells) is on record as “+ (+ (< 5% FDR))”. For the same compound, in series [4] (untreated cells), the “HLA-B*57:01 previous observation by LC-MS/MS, Untreated” value is listed as “+ (+ (< 5% FDR))”. Besides, the “Category of abacavir impact on peptide abundance in the immunopeptidome” value in series [5] (C1R.B*57:01, 35 µM abacavir 0-16 h or constant, linear regression of normalised abundance, three replicates) is “Minimal”. Moreover, in series [5] (LC-MRM-MS detection, classification of the peptide based on abacavir dependency), the Abacavir dependence entry was “Minimal”. The same compound came in with a Linear regression slope in series [5] (linear regression of LC-MRM-MS peptide abundance over abacavir treatment time) of 0.0161.
